From patent US9944019B2, “Tip-loaded microneedle arrays for transdermal insertion” (University of Pittsburgh—Of the Commonwealth System of …, priority 2012, dated 2018)

Tested on: epidermal cells
Assay: Apoptosis in living human skin organ cultures, green fluorescent TUNEL assay
Type: cell-based
Conditions: arrays removed after 5 minutes, 72 hours of exposure; pyramidal CMC-microneedle arrays
Protocol: Cytoxan® was integrated at a concentration of 5 mg/g of CMC, enabling delivery of approximately about 140 μg per array. This is a therapeutically relevant concentration based on the area of skin targeted, yet well below levels associated with systemic toxicities. Living human skin organ cultures were used to assess the cytotoxicty of Cytoxan®. Cytoxan® was delivered by application of arrays to skin explants as we previously described. Arrays and residual material were removed 5 minutes after application, and after 72 hours of exposure, culture living skin explants were cryo-sectioned and fixed.

SMILES: O=P1(N(CCCl)CCCl)NCCCO1 (stereo not shown) [Cytoxan®, cyclophosphamide]
- apoptosis (TUNEL): extensive apoptosis of epidermal cells
